The text below walks through data of patent US9297017B2, “Methods and compositions for targeted protein degradation” (University of Washington, priority 2010, dated 2016).

Molecules are shown by their SMILES. Several values for one entry are separate records, joined by “and”; a condition that tells them apart may be missing. Equal values may be shown once. Read-outs that look alike come from different tables or passages of the source. Some results are limits rather than exact numbers.

The target of test [1] is T1, COI1-JAZ6 complex (Arabidopsis thaliana, UniProt O04197+Q9C9E3).
T1 construct: Full-length Arabidopsis thaliana COI1 and ASK1 were co-expressed; Full-length JAZ substrate proteins were expressed as 6×His-fusion proteins in Escherichia coli; GST (cleaved yes); 6xHis; made in house; host or cells: Hi5 insect cells (COI1/ASK1); Escherichia coli (JAZ6)
T1 sequence (O04197 1-592): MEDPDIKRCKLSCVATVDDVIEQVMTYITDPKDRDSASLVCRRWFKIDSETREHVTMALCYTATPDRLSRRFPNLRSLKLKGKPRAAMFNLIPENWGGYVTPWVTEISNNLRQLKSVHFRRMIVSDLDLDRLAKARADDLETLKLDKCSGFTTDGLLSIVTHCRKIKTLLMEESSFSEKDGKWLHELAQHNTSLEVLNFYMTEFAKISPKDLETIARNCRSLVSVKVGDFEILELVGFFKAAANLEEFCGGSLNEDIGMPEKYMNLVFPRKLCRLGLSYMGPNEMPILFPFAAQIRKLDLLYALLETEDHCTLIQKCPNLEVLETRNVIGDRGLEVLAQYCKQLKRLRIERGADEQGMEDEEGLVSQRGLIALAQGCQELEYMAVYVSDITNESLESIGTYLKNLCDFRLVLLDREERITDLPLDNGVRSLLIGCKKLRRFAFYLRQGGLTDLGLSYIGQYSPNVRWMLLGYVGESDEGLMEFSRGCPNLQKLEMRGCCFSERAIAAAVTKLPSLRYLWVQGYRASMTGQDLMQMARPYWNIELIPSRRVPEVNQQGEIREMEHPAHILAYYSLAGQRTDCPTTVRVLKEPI
T1 sequence (Q39255 1-160 partner): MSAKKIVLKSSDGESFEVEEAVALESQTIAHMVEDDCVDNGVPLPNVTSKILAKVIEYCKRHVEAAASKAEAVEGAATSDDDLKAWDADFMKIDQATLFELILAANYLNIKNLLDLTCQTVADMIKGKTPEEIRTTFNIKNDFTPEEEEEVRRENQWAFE
T1 sequence (Q9C9E3 1-269): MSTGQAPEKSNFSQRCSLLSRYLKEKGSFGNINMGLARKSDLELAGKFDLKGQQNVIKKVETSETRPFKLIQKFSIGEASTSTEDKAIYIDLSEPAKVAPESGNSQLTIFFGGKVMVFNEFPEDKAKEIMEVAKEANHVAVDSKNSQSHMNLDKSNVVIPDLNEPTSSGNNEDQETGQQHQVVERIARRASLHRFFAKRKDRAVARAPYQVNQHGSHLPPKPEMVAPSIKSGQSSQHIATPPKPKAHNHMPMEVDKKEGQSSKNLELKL
The experiment in a line: Competition binding with 100 nM 3H-coronatine. The note with it: relative to (3R,7S)-JA-Ile. An excerpt:
(§1) (^3H)-labeled coronatine was synthesized by Amersham. Full-length Arabidopsis thaliana COI1 and ASK1 were co-expressed as a glutathione S-transferase (GST) fusion protein and an untagged protein, respectively, in Hi5 suspension insect cells. The COI1/ASK1 complex was isolated from the soluble cell lysate by glutathione affinity chromatography. After on-column tag cleavage by tobacco etch virus protease, the complex was further purified by anion exchange and gel filtration chromatography and concentrated by ultrafiltration to 12-18 mg ml^−1. Full-length JAZ substrate proteins were expressed as 6×His-fusion proteins in Escherichia coli and purified on Ni-NTA resin with subsequent dialysis into 20 mM Tris-HCl, pH 8.0, 200 mM NaCl, and 10% glycerol.
(§2) Radioligand binding was assayed on purified proteins, with 2 mg COI1/ASK1 complex and JAZ proteins at a 1:3 molar ratio. Reactions were prepared in […] final volume and in a binding buffer containing 20 mM Tris-HCl 200 mM NaCl, and 10% glycerol. Saturation binding experiments were conducted with serial dilutions of 3H-coronatine in binding buffer. Nonspecific binding was determined in the presence of […] coronatine. Competition binding experiments were conducted with serial dilutions of JA-Ile in the presence of 100 nM ^3H coronatine with nonspecific binding determined in the presence of […] coronatine. Total binding was determined in the presence of vehicle only. Two-point binding experiments were performed in the presence of 100 nM or 300 nM ^3H-coronatine with nonspecific binding determined in the presence of […] coronatine. Following incubation with mixing at 4° C., all samples were collected with a cell harvester (Brandel, Gaithersburg, Md.) on polyethyleneimine (Sigma)-treated filters. […] Saturation binding experiments were analyzed by nonlinear regression, competition binding experiments by nonlinear regression with Ki calculation as described previously (Cheng 1973), and concentration-response data by sigmoidal dose-response curve fitting, all using GraphPad Prism version 4.00 for MacOSX.

In another test the target is T2, full-length JAZ1 (Arabidopsis thaliana, UniProt Q9LMA8).
T2 construct: 6xHis; made in house; host or cells: Escherichia coli
T2 sequence (Q9LMA8 1-253): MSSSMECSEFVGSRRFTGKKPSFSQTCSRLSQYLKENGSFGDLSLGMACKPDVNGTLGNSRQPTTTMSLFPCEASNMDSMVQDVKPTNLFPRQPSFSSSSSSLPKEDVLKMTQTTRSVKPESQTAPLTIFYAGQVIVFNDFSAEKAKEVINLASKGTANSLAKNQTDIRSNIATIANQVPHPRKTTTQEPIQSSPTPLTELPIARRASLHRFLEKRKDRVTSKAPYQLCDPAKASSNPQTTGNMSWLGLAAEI
The experiment in a line: Radioligand binding of 3H-coronatine to full-length JAZ1 alone.
Text: as §1
(§3) Radioligand binding was assayed on purified proteins, with 2 mg COI1/ASK1 complex and JAZ proteins at a 1:3 molar ratio. […] Nonspecific binding was determined in the presence of […] coronatine. Competition binding experiments were conducted with serial dilutions of JA-Ile in the presence of 100 nM ^3H coronatine with nonspecific binding determined in the presence of […] coronatine. Total binding was determined in the presence of vehicle only. Two-point binding experiments were performed in the presence of 100 nM or 300 nM ^3H-coronatine with nonspecific binding determined in the presence of 300 mM coronatine. […]

The next test addresses T3, COI1 (Arabidopsis thaliana, UniProt O04197).
T3 construct: Full-length Arabidopsis thaliana COI1 and ASK1 were co-expressed; GST (cleaved yes); made in house; host or cells: Hi5 insect cells (COI1/ASK1); JAZ peptides synthetic
T3 sequence (O04197 1-592): T1 sequence (O04197 1-592)
T3 sequence (Q39255 1-160 partner): T1 sequence (Q39255 1-160 partner)
Briefly: Radioligand binding of 3H-coronatine to COI1 alone.
Text: as §1, §2

The target of another test is T4, full-length JAZ6 (Arabidopsis thaliana, UniProt Q9C9E3).
T4 construct: 6xHis; made in house; host or cells: Escherichia coli
T4 sequence (Q9C9E3 1-269): T1 sequence (Q9C9E3 1-269)
The experiment in a line: Radioligand binding of 3H-coronatine to full-length JAZ6 alone.
Text: as §1, §3

The target of test [2] is T1, COI1-JAZ6 complex. Briefly: Saturation radioligand binding of 3H-coronatine to COI1/ASK1 in the presence of JAZ6.
Text: as §1, §2

Consider `CC[C@H]1C=C(C(=O)N[C@@]2(C(=O)O)C[C@@H]2CC)[C@H]2CCC(=O)[C@H]2C1` [coronatine], for which the “Affinity of coronatine over (3R,7S)-JA-Ile in binding assays” value on COI1-JAZ6 complex [1] was “approximately tenfold”. Moreover, the “Binding affinity for JAZ1 alone” value on full-length JAZ1 is “minimal binding affinity”; at full-length JAZ1 (listed as 3H-coronatine), “no appreciable binding affinity”. Besides, the “Specific binding to COI1 alone” value on COI1 (300 nM coronatine) is on record as below 2%. The “Binding affinity for COI1 alone” value at COI1 was “minimal binding affinity”; at COI1 (listed as 3H-coronatine) it was “no appreciable binding affinity”. Further, the “Binding affinity for JAZ6 alone” value is recorded as “minimal binding affinity” at full-length JAZ6 and “no appreciable binding affinity” on full-length JAZ6 (listed as 3H-coronatine). Moreover, at COI1-JAZ6 complex [2], the “Binding affinity for COI1/JAZ6 complex” value is “high affinity”. In addition, the “Concentration at which binding reached the level of saturation” value at COI1-JAZ6 complex [2] (COI1/JAZ6 complex) amounted to 300 nM. The Kd at COI1-JAZ6 complex [2] (COI1/JAZ6 complex, listed as 3H-coronatine) was 48 nM and 68 nM.
